For assay [1], the system named is HMEC-1. Nature of the assay: Antiangiogenic activity in HMEC1 cells assessed as inhibition of capillary-like network formation at 2.5 ug/ml after 18 hrs. Format: functional, cell-based. The settings on record: Homo sapiens.
The test system of assay [2] is HMEC-1. Nature of the assay: Antiangiogenic activity in HMEC1 cells assessed as inhibition of capillary-like network formation at 1.5 ug/ml after 18 hrs. The assay is classed as functional, cell-based. The note with it: Homo sapiens.
A short description of assay [3]: Cytotoxicity against HMEC1 cells by resazurin assay. Format: cell-based. The note with it: Homo sapiens, HMEC-1. (Alamar Blue is a resazurin reagent that responds to reducing activity.)

The source made the active and inactive calls. The calls are words filed in the database; no cut-off is given here.

Regarding `C=C1C(=O)[C@@]23[C@@H]4OC5O[C@@]2(O)[C@@H](O)[C@@H]2C(C)(C)CC[C@@H](O)[C@]52[C@@H]3CC[C@@H]14`, the result with HMEC-1 [1] and in the assay on HMEC-1 [2] was Active.

By IC50 is commonly meant the midpoint of a concentration-inhibition curve. Low values mean inhibition by little substance, high ones a need for much substance. In the case of `C=C1C(=O)[C@]23[C@H](O)[C@H]1CC[C@H]2[C@@]12CO[C@]3(O)[C@@H](O)[C@@H]1C(C)(C)CC[C@@H]2O` [ORIDONIN], the result in the assay on HMEC-1 [1] and in the assay on HMEC-1 [2] was Active. Further, the half-maximal inhibitory concentration (IC50) in assay [3] was more than 4 µg/mL.

These data come from ChEMBL document CHEMBL1146450, “Ponicidin and oridonin are responsible for the antiangiogenic activity of Rabdosia rubescens, a constituent of the herbal supplement PC SPES” (J Nat Prod, 2004).
